The structures appear in SMILES notation.

This series is described as follows: gradient 5% acetonitrile 3 min, to 50% in 2 min, to 85% in 15 min, held 3 min, 100 µL/min. The following applies: column: Zorbax Extend-C18 2.1 x 50 mm; eluents: water / acetonitrile, 0.1% formic acid. In outline: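 Each retention time is based on an adduct peak selected computationally and verified by manual inspection. Measurements used HPLC–quadrupole time-of-flight mass spectrometry in positive and negative ionization mode on mixtures of ~100 pure standards. Chromatography ran on a Zorbax Extend-C18 column (2.1 × 50 mm, 1.8 μm) at 100 μL/min with water and acetonitrile, each containing 0.1% formic acid, and dead and dwell volumes of 40 μL and 900 μL.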
Take `O=C(CCc1ccccc1)N1CCOc2ccccc2C1`: the RP-LC retention time turned out to be 861 s. In the case of `COCc1c(C(=O)O)nnn1-c1ccc(C(F)(F)F)cc1` it was 775 s; in that of `Cc1cc(C)cc(Oc2nccn3c(=O)n(CC(=O)NC4CCCC4)nc23)c1`, 834 s; in that of `CC1CCN(c2ncc3c(n2)CCC(C(=O)NC(C)c2ccccn2)C3)CC1` (centres undefined), 614 s. Next, `CC(C)c1nc(C2Cc3ccccc3N2C(=O)NCc2ccco2)no1` (centres undefined): 889 s; `COCCNc1c(-c2ccc(C)cc2)nc2sc(C(=O)N(C)C)c(C)n12`: 698 s.

With `CCc1nc(OCC(=O)Nc2ccc(Br)cc2)c2ccccc2n1`, the RP-LC retention time came out at 874 s. `Cc1cccc(N2CCN(Cc3nc(-c4ccc(N5CCCC5)nc4)no3)CC2)c1C` yielded an RP-LC retention time of 787 s. Next, `O=C(COc1ccc(F)cc1)N1CCC(c2noc(C3CC3)n2)C1` (centres undefined): 791 s; `O=C(NCc1ccc(F)cc1F)c1ccc2ncnc(N3CCCCC3)c2c1`: 680 s. Next, `O=C(Cn1c(=O)cc(C(=O)N2CCCC2)c2ccccc21)Nc1cccc(Br)c1`: 780 s; `CC(C)CC(C(=O)Nc1cccc(O)c1)N1C(=O)c2ccccc2C1=O` (centres undefined): 823 s; `Cn1nc(-c2nc(-c3ccc(F)cc3)no2)c2c1CCN(C(=O)NC(C)(C)C)C2`: 966 s.

Compound `CC(C)n1cnc(S(=O)(=O)N2CCCC(C(=O)Nc3ccc(F)cc3)C2)c1` (centres undefined) gave an RP-LC retention time of 765 s. `CC(C)CCNCC(O)Cn1c2ccc(Br)cc2c2cc(Br)ccc21` (centres undefined) displayed an RP-LC retention time of 906 s. In turn, `Cn1cccc1CN(C(=O)c1ccc(Cl)c(Cl)c1)C1CC1` had an RP-LC retention time of 994 s. Next, `O=C(NCc1cccc(Cl)c1)C1CCc2nc(N3CCOCC3)ncc2C1` (centres undefined): 726 s. In the case of `O=C(NCCn1c(=O)n(Cc2ccccc2)c2cccnc21)c1cnccn1`, the RP-LC retention time is 680 s. In the case of `C=CCNC(=O)c1ccc2c(c1)N(C)C(=O)CS2` it was 671 s; in that of `O=C(NCc1ccc(F)cc1Cl)c1csc(C(=O)N2CCCC2)n1`, 864 s; in that of `O=C(CCc1nc2ccccc2s1)N1CCC(c2noc(-c3ccncc3)n2)C1` (centres undefined), 760 s.

Compound `Clc1ccc2ncnc(NCc3ccc4c(c3)OCO4)c2c1` showed an RP-LC retention time of 694 s. Next, `CN(CC(=O)N1CCN(c2ccccn2)CC1)c1nnc(N2CCCC2=O)s1`: 550 s; `Cc1ccc(C)c(-c2coc(-c3ccc(NC(=O)C(C)C)cc3)n2)c1`: 1170 s; `O=C(c1nc(-c2ccccc2)nc2c1OCO2)N1CCCC1`: 815 s. In the case of `CCN(C(=O)c1cc2c(s1)N(C)CCCC2)C(C)C` it was 1020 s. In the case of `Cc1onc(-c2ccncc2)c1C(=O)NCCN(C)C1CCCCC1` it was 575 s; in that of `Cc1cc(C)cc(NS(=O)(=O)c2ccc3c(c2)C(=O)N(C)c2ncccc2O3)c1`, 1000 s. As for `CSc1cccc(NC(=O)C(=O)NCc2cccs2)c1`, the RP-LC retention time was found to be 846 s. In the case of `Cc1ccc(CNC(=O)N2CCC(n3c(C(F)(F)F)nc4cccnc43)CC2)cc1` it was 844 s; in that of `CCOC(=O)C1CCN(C(=O)c2nnc(-c3ccc(S(=O)(=O)N4CCCCC4)cc3)o2)CC1`, 961 s; in that of `Cc1ccc(-n2nc(C)c3sc(N4CCCC(C(=O)NC(C)c5ccccc5)C4)nc32)cc1` (centres undefined), 1190 s. In the case of `COC[C@@H]1CN(Cc2c(C)n[nH]c2C)C[C@H]1c1ccccn1` it was 558 s; in that of `CCCCn1nc2c(S(=O)(=O)N3CCc4ccccc4C3)cccn2c1=O`, 914 s.

The values above are taken from the METLIN SMRT retention time set (Domingo-Almenara et al. 2019).
